Patent US7034208B1, “Ahas inhibiting herbicide resistant wheat and method for selection thereof” (BASF Aktiengellschaft, priority 1991, dated 2006)

How the values were obtained:
[1] = system: wheat selection FS4 and Fidel; experiment: Field Trial II; type: in vivo; conditions: resistant selection FS4; postemergent; six weeks after treatment
[2] = system: F2 progeny of Fidel x FS1-FS4 crosses and Fidel; experiment: Genetic Condition Studies Experiment 4, F2 of (Fidel x FS) selfed; type: in vivo, wheat; conditions: 200 g/ha postemergence
Description: Experiment 4: The resistant wheat selections, FS1-FS4, are crossed to Fidel and the F1 seed from these crosses is selfed. The crosses are as follows: (Fidel×FS1) selfed (Fidel×FS2) selfed (Fidel×FS3) selfed (Fidel×FS4) selfed
The F2 progeny from these crosses and their susceptible progenitor variety Fidel are planted in flats. Five F2 progenies are used for each of the four crosses. One flat is planted of each progeny for each cross. The flats consist of six rows per flat with 25 seeds per row. The flats are sprayed postemergence with 200 g/ha PURSUIT™ eleven days later. The PURSUIT™ is applied as previously described.

[3] = system: F2 of intercrosses between wheat selections FS1-FS4; experiment: Genetic Condition Studies Experiment 5, allelism (Table 3); type: in vivo; conditions: 200 g/ha, after treatment
Description: Experiment 5: Crosses and reciprocal crosses are made between the four mutant wheat selections. The F1 seed from these crosses is planted and the plants allowed to self. The F2 seed is harvested and used in this experiment to determine allelism of the four selections. Whole-flats are filled with Metro Mix 350™ and are sown with 100 seeds per cross (four rows with 25 seeds/row). In addition a row of susceptible Fidel is sown in each flat. Three sources from each cross are used. When the seedlings reach the Z12 stage, the flats are sprayed with PURSUIT™ at 200 g/ha. The PURSUIT™ solution is applied as previously described. […]

[4] = system: M4 progeny of wheat selections FS1-FS4 and Fidel; experiment: Segregation Study, postemergence spray of M4 progeny; type: in vivo
Method: A study is performed to assay M4 progeny of the initial mutant wheat selections for imidazolinone resistance and homogeneity. M4 seeds, from M3 plants (derived from initial selections, FS1-FS4) which survive the two-step screen described previously, are used in this study. In addition, M4 seeds derived from M3 plants of each selection which are not screened (designated “stock” plants) are evaluated as well as Fidel controls. Seeds, derived from both stock and screened M3 plants representing each infloresence of each original wheat selection (FS1-FS4), are planted in flats at a rate of twenty-five seeds per row and eight rows per flat. One week after planting, when the seedlings are at Z12 (two leaf) stage, the plants are sprayed with 62.5 g/ha PURSUIT™. The herbicide is applied with a laboratory belt sprayer at a rate of 950 L/ha with a belt speed of 12.5 sec/rev. using sprayer nozzle #40015E at a height 18 inches above the plants. Tween 20™ is used as a surfactant at 0.25% v/v. Plants are evaluated three weeks after spraying.

CCc1cnc(C2=NC(C)(C(C)C)C(=O)N2)c(C(=O)O)c1 (stereo not drawn) [PURSUIT, 5-ethyl-2-(4-isopropyl-4-methyl-5-oxo-2-imidazolin-2-yl)-nicotinic acid]
effect on final plant height [1]: no effect
segregation ratio of F2 progenies ([2]; F2 of each of the four crosses (Fidel x FS1-FS4) selfed): 3 (resistant): 1 (susceptible)
lethality ([2]; plants heterozygous or homozygous for resistance): non-lethal
lethality ([2]; susceptible wheat): lethal to susceptible wheat
Resist: number of plants resistant ([3]; F2 source (FS1/FS2)X-1): 71
Suscept: number of plants susceptible ([3]; F2 source (FS1/FS2)X-1): 1
Resist: number of plants resistant ([3]; F2 source (FS1/FS2)X-2): 85
Suscept: number of plants susceptible ([3]; F2 source (FS1/FS2)X-2): 2
Resist: number of plants resistant ([3]; F2 source (FS1/FS2)X-3): 74
Suscept: number of plants susceptible ([3]; F2 source (FS1/FS2)X-3): 1
Resist: number of plants resistant ([3]; F2 source (FS1/FS3)X-1): 82
Suscept: number of plants susceptible ([3]; F2 source (FS1/FS3)X-1): 0
Resist: number of plants resistant ([3]; F2 source (FS1/FS3)X-2): 92
Suscept: number of plants susceptible ([3]; F2 source (FS1/FS3)X-2): 0
Resist: number of plants resistant ([3]; F2 source (FS1/FS3)X-3): 93
Suscept: number of plants susceptible ([3]; F2 source (FS1/FS3)X-3): 0
Resist: number of plants resistant ([3]; F2 source (FS1/FS4)X-1): 96
Suscept: number of plants susceptible ([3]; F2 source (FS1/FS4)X-1): 0
Resist: number of plants resistant ([3]; F2 source (FS1/FS4)X-2): 90
Suscept: number of plants susceptible ([3]; F2 source (FS1/FS4)X-2): 0
Resist: number of plants resistant ([3]; F2 source (FS1/FS4)X-3): 93
Suscept: number of plants susceptible ([3]; F2 source (FS1/FS4)X-3): 2
Resist: number of plants resistant ([3]; F2 source (FS2/FS1)X-1): 95
Suscept: number of plants susceptible ([3]; F2 source (FS2/FS1)X-1): 0
Resist: number of plants resistant ([3]; F2 source (FS2/FS1)X-2): 91
Suscept: number of plants susceptible ([3]; F2 source (FS2/FS1)X-2): 0
Resist: number of plants resistant ([3]; F2 source (FS2/FS1)X-3): 97
Suscept: number of plants susceptible ([3]; F2 source (FS2/FS1)X-3): 0
Resist: number of plants resistant ([3]; F2 source (FS2/FS3)X-1): 99
Suscept: number of plants susceptible ([3]; F2 source (FS2/FS3)X-1): 0
Resist: number of plants resistant ([3]; F2 source (FS2/FS3)X-2): 87
Suscept: number of plants susceptible ([3]; F2 source (FS2/FS3)X-2): 1
Resist: number of plants resistant ([3]; F2 source (FS2/FS3)X-3): 92
Suscept: number of plants susceptible ([3]; F2 source (FS2/FS3)X-3): 0
Resist: number of plants resistant ([3]; F2 source (FS2/FS4)X-1): 102
Suscept: number of plants susceptible ([3]; F2 source (FS2/FS4)X-1): 0
Resist: number of plants resistant ([3]; F2 source (FS2/FS4)X-2): 97
Suscept: number of plants susceptible ([3]; F2 source (FS2/FS4)X-2): 0
Resist: number of plants resistant ([3]; F2 source (FS2/FS4)X-3): 97
Suscept: number of plants susceptible ([3]; F2 source (FS2/FS4)X-3): 1
Resist: number of plants resistant ([3]; F2 source (FS3/FS1)X-2): 95
Suscept: number of plants susceptible ([3]; F2 source (FS3/FS1)X-2): 0
Resist: number of plants resistant ([3]; F2 source (FS3/FS1)X-3): 97
Suscept: number of plants susceptible ([3]; F2 source (FS3/FS1)X-3): 0
Resist: number of plants resistant ([3]; F2 source (FS3/FS1)X-5): 94
Suscept: number of plants susceptible ([3]; F2 source (FS3/FS1)X-5): 1
Resist: number of plants resistant ([3]; F2 source (FS3/FS2)X-1): 96
Suscept: number of plants susceptible ([3]; F2 source (FS3/FS2)X-1): 0
Resist: number of plants resistant ([3]; F2 source (FS3/FS2)X-2): 94
Suscept: number of plants susceptible ([3]; F2 source (FS3/FS2)X-2): 0
Resist: number of plants resistant ([3]; F2 source (FS3/FS2)X-3): 96
Suscept: number of plants susceptible ([3]; F2 source (FS3/FS2)X-3): 0
Resist: number of plants resistant ([3]; F2 source (FS3/FS4)X-1): 98
Suscept: number of plants susceptible ([3]; F2 source (FS3/FS4)X-1): 0
Resist: number of plants resistant ([3]; F2 source (FS3/FS4)X-2): 96
Suscept: number of plants susceptible ([3]; F2 source (FS3/FS4)X-2): 0
Resist: number of plants resistant ([3]; F2 source (FS3/FS4)X-3): 96
Suscept: number of plants susceptible ([3]; F2 source (FS3/FS4)X-3): 0
Resist: number of plants resistant ([3]; F2 source (FS4/FS1)X-1): 93
Suscept: number of plants susceptible ([3]; F2 source (FS4/FS1)X-1): 1
Resist: number of plants resistant ([3]; F2 source (FS4/FS1)X-2): 91
Suscept: number of plants susceptible ([3]; F2 source (FS4/FS1)X-2): 0
Resist: number of plants resistant ([3]; F2 source (FS4/FS1)X-3): 94
Suscept: number of plants susceptible ([3]; F2 source (FS4/FS1)X-3): 1
Resist: number of plants resistant ([3]; F2 source (FS4/FS2)X-1): 94
Suscept: number of plants susceptible ([3]; F2 source (FS4/FS2)X-1): 0
Resist: number of plants resistant ([3]; F2 source (FS4/FS2)X-2): 95
Suscept: number of plants susceptible ([3]; F2 source (FS4/FS2)X-2): 1
Resist: number of plants resistant ([3]; F2 source (FS4/FS2)X-3): 95
Suscept: number of plants susceptible ([3]; F2 source (FS4/FS2)X-3): 0
Resist: number of plants resistant ([3]; F2 source (FS4/FS3)X-1): 96
Suscept: number of plants susceptible ([3]; F2 source (FS4/FS3)X-1): 0
Resist: number of plants resistant ([3]; F2 source (FS4/FS3)X-2): 100
Suscept: number of plants susceptible ([3]; F2 source (FS4/FS3)X-2): 0
Resist: number of plants resistant ([3]; F2 source (FS4/FS3)X-3): 94
Suscept: number of plants susceptible ([3]; F2 source (FS4/FS3)X-3): 0
Resist: number of plants resistant ([3]; Total of (FS1/FS2) sources): 230
Suscept: number of plants susceptible ([3]; Total of (FS1/FS2) sources): 4
Resist: number of plants resistant ([3]; Total of (FS1/FS3) sources): 267
Suscept: number of plants susceptible ([3]; Total of (FS1/FS3) sources): 0
Resist: number of plants resistant ([3]; Total of (FS1/FS4) sources): 279
Suscept: number of plants susceptible ([3]; Total of (FS1/FS4) sources): 2
Resist: number of plants resistant ([3]; Total of (FS2/FS1) sources): 283
Suscept: number of plants susceptible ([3]; Total of (FS2/FS1) sources): 0
Resist: number of plants resistant ([3]; Total of (FS2/FS3) sources): 278
Suscept: number of plants susceptible ([3]; Total of (FS2/FS3) sources): 1
Resist: number of plants resistant ([3]; Total of (FS2/FS4) sources): 296
Suscept: number of plants susceptible ([3]; Total of (FS2/FS4) sources): 1
Resist: number of plants resistant ([3]; Total of (FS3/FS1) sources): 286
Suscept: number of plants susceptible ([3]; Total of (FS3/FS1) sources): 1
Resist: number of plants resistant ([3]; Total of (FS3/FS2) sources): 286
Suscept: number of plants susceptible ([3]; Total of (FS3/FS2) sources): 0
Resist: number of plants resistant ([3]; Total of (FS3/FS4) sources): 290
Suscept: number of plants susceptible ([3]; Total of (FS3/FS4) sources): 0
Resist: number of plants resistant ([3]; Total of (FS4/FS1) sources): 278
Suscept: number of plants susceptible ([3]; Total of (FS4/FS1) sources): 2
Resist: number of plants resistant ([3]; Total of (FS4/FS2) sources): 284
Suscept: number of plants susceptible ([3]; Total of (FS4/FS2) sources): 1
Resist: number of plants resistant ([3]; Total of (FS4/FS3) sources): 290
Suscept: number of plants susceptible ([3]; Total of (FS4/FS3) sources): 0
susceptibility of Fidel ([4]; Fidel, 62.5 g/ha postemergence at Z12 stage, three weeks after spraying, all plants die): completely susceptible
tolerance of resistant selections ([4]; imidazolinone-resistant winter wheat selections, M4, 62.5 g/ha postemergent, greenhouse): excellent tolerance
